For assay [1], the target named is T1, BSAP (Bacillus subtilis, UniProt P25152).
T1 construct: gene ywaD; host B. subtilis WB600; purified as in previous study
In words: steady-state hydrolysis kinetics, non-linear regression. Format: biochemical. To be noted: free enzyme; assay as in previous study, conditions not printed here. An excerpt:
steady-state hydrolysis kinetics, non-linear regression on BSAP

Assay [2] has as its target T2, BSAP-ΔPA (Bacillus subtilis, UniProt P25152, DEL101-225, form not given).
T2 construct: gene ywaD; protease-associated domain (101-225) deleted by inverse PCR; 330 residues before signal peptide removal; plasmid PMA5, host B. subtilis WB600; purified from culture supernatant
The description is as above. Format: biochemical. To be noted: free enzyme; assay as in previous study, conditions not printed here. An excerpt: steady-state hydrolysis kinetics, non-linear regression on BSAP-ΔPA

T2 sequence (P25152 other isoform, or with tags, fused parts or gaps DEL101-225): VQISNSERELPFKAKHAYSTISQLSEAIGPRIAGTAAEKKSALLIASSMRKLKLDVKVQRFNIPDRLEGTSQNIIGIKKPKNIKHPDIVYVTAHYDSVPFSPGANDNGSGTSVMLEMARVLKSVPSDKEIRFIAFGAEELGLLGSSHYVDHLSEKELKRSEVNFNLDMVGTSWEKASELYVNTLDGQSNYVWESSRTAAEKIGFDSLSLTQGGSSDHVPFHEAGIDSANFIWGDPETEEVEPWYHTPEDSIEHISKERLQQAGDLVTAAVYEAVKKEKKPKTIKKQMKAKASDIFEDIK
T1 sequence (P25152 32-455): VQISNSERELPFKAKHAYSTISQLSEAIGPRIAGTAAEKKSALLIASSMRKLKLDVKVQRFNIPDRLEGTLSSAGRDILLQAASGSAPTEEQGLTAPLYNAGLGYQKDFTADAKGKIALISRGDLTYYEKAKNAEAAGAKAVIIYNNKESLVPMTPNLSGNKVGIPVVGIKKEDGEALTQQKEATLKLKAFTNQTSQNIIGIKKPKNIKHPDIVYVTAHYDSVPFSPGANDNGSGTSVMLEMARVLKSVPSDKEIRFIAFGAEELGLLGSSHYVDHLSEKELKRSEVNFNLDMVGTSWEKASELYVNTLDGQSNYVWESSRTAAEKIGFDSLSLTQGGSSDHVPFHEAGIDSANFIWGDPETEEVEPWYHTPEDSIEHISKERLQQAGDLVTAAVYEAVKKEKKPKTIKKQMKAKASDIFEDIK

For the compound `CC(C)C[C@H](N)C(=O)Nc1ccc([N+](=O)[O-])cc1` [Leu-pNA], the “K m” value in assay [1] came out at 2.52 ± 0.11 mmol; in assay [2], 2.43 ± 0.23 mmol.

Values taken from publication PMC3954873, “Enhanced Thermal Stability and Hydrolytic Ability of Bacillus subtilis Aminopeptidase by Removing the Thermal Sensitive Domain in the Non-Catalytic Region” (PLoS ONE, 2014).
